The results in this text go back to US11505548B2, “Heterocyclic compounds and their use for treatment of helminthic infections and diseases” (Celgene Corporation, priority 2019, dated 2022).

This experiment has as its system microfilariae of Dirofilaria immitis. Briefly: Dirofilaria immitis, Microfilaria (DiMF) Assay. The following applies: read-out: D. immitis activity level (IC50 or MED). Type of experiment: cell-based. Here is the method:
Heartworm Screen Dirofilaria immitis (D. immitis)
Dirofilaria immitis, Microfilaria (DiMF) Assay.
Compounds were dissolved and serially diluted in DMSO. Aliquots were spotted to the empty wells of assay plates. Media and microfilariae of Dirofilaria immitis were added to each well to dilute the test compounds to the desired concentrations. Assay plates were incubated for approximately 72 hours, and the larvae in each well were observed microscopically for drug effect. Microfilariae in each well were assessed subjectively for survival or paralysis, and results were reported as Minimum Effective Dose (MED).
Active and selective (DiL4 vs. DiMF potency) example compounds were subsequently evaluated in heartworm positive dog studies to correlate the in vitro selectivity profile with in vivo effects on circulating microfilariae.

Structures are written as SMILES.

As usually defined, the IC50 is the concentration that inhibits the measured activity by half.

As for `Cc1cc(C#N)cnc1Nc1nc(-c2ccc(OC(C)C)cn2)ns1` [Compound 231, 6-(3-(5-isoprop-oxypyridin-2-yl)-1,2,4-thiadiazol-5-ylamino)-5-methyl-nicotinonitrile], the IC50 was 200 to 500 nM.
Turning to `CC(C)Oc1ccc(-c2nsc(Nc3ncc(C(=O)NC4CC(F)(F)C4)cc3C(C)C)n2)nc1` [Compound 195, N-(3,3-difluoro-cyclobutyl)-6-(3-(5-isoprop-oxypyridin-2-yl)-1,2,4-thiadiazol-5-ylamino)-5-isopropyl-nicotinamide], the IC50 was in the range of 500 to 5000 nM.
As for `CC(=O)N(C)c1cccnc1Nc1nc(-c2cc(C(F)F)c(OC(C)C)cn2)ns1` [Compound 261, N-(2-(3-(4-(difluoromethyl)-5-isopropoxy-pyridin-2-yl)-1,2,4-thiadiazol-5-ylamino)pyridin-3-yl)-N-methylacetamide], the figure is 200 to 500 nM.
`COc1ccnc(-c2nsc(Nc3ccc(C(F)(F)F)cn3)n2)c1` [Compound 176, 3-(4-methoxy-pyridin-2-yl)-N-(5-(trifluoromethyl)pyridin-2-yl)-1,2,4-thiadiazol-5-amine]: the IC50 is under 200 nM.
As for `FC(F)(F)c1ccc(Nc2nc(-c3cc(OC4CCCCC4)ccn3)ns2)nc1` [Compound 213, 3-(4-(cyclo-hexyloxy)pyridin-2-yl)-N-(5-(trifluoromethyl)pyridin-2-yl)-1,2,4-thiadiazol-5-amine], the figure is under 200 nM; as for `COc1ccc(Nc2nc(-c3ccccn3)ns2)nc1` [Cmpd 2, N-(5-methoxy-pyridin-2-yl)-3-(pyridin-2-yl)-1,2,4-thiadiazol-5-amine], 500 to 5000 nM; as for `CC(C)Oc1cnc(-c2nsc(Nc3ncccc3C(F)(F)F)n2)cc1C(=O)N(C)C` [Compound 218, 5-isopropoxy-N,N-dimethyl-2-(5-(3-(trifluoromethyl)pyridin-2-ylamino)-1,2,4-thiadiazol-3-yl)isonico-tinamide], 500 to 5000 nM.
Consider `CC(=O)N(C)c1cc(C(F)(F)F)cnc1Nc1nc(-c2cc3c(cn2)OC(C)(C)C3)ns1` [Compound 272, N-(2-(3-(2,2-dimethyl-2,3-dihydrofuro [2,3-c]pyridin-5-yl)-1,2,4-thiadiazol-5-ylamino)-5-(trifluoromethyl)pyridin-3-yl)-N-methylacetamide], for which the IC50 is under 200 nM.
As for `CC(C)c1cnc(Nc2nc(-c3cc(OC4CC4)ccn3)ns2)cc1C(F)(F)F` [Compound 96, 3-(4-cycloprop-oxypyridin-2-yl)-N-(5-isopropyl-4-(trifluoromethyl)pyridin-2-yl)-1,2,4-thiadiazol-5-amine], the figure is under 200 nM; as for `COc1ccc(-c2nsc(Nc3ccc(C4CCCC4)cn3)n2)nc1` [Compound 68, N-(5-cyclopentyl-pyridin-2-yl)-3-(5-methoxypyridin-2-yl)-1,2,4-thiadiazol-5-amine], 500 to 5000 nM; as for `CC(=O)N(C)c1ccc(-c2nsc(Nc3ncccc3C)n2)nc1` [Compound 269, N-methyl-N-(6-(5-(3-methylpyridin-2-ylamino)-1,2,4-thiadiazol-3-yl)pyridin-3-yl)acetamide], 500 to 5000 nM.
As for `CC(=O)N(c1cccnc1Nc1nc(-c2ccc(OC(C)C)cn2)ns1)C(C)C` [Compound 205, N-(2-(3-(5-isopropoxy-pyridin-2-yl)-1,2,4-thiadiazol-5-ylamino)pyridin-3-yl)-N-isopropy-lacetamide], the figure is 500 to 5000 nM.
As for `CC(C)Oc1ccc(-c2nsc(Nc3ncccc3N(C)C(=O)C3CC3)n2)nc1` [Compound 170, N-(2-(3-(5-isopropoxy-pyridin-2-yl)-1,2,4-thiadiazol-5-ylamino)pyridin-3-yl)-N-methylcyclo-propanecarbox-amide], the figure is 500 to 5000 nM; as for `CC(=O)Nc1cccnc1Nc1nc(-c2ccc(OC(C)C)cn2)ns1` [Compound 161, N-(2-(3-(5-isopropoxy-pyridin-2-yl)-1,2,4-thiadiazol-5-ylamino)pyridin-3-yl)acetamide], 500 to 5000 nM.
